Measurements published in PMC3767324, “Synthesis, Characterization, and BSA Binding Studies of Some New Benzamides Related to Schiff Base” (ISRN Organic Chemistry, 2013).
Converted amounts (≈) assume the structure as drawn.

Key:
[1] = superoxide radical scavenging assay (NBT, xanthine-xanthine oxidase system); type: biochemical; conditions: NBT reduction, pH 7.8, 560 nm, three replicates
Experimental: Superoxide radical scavenging activity was measured as described by Kovala-Demertzi et al., (2004). The assay is based on the reduction of nitroblue tetrazolium (NBT) by superoxide ions generated by the xanthine-xanthine oxidase system (X–XO). The reaction system contained 0.2 mM xanthine and 0.6 mM NBT in 0.1 M phosphate buffer, pH 7.8. The tested compounds were dissolved in methanol. The reaction was started by addition of XO (0.07 U mL^−1), an activity which allowed to yield the absorbance change between 0.03 and 0.04 per minute, at 560 nm. The extent of NBT reduction was followed spectrophotometrically, by measuring the increase of the absorbance at 560 nm. All the experiments were replicated three times. The IC50 of each compound was defined as the concentration which inhibited 50% of the NBT reduction by O2 ^•− produced in the X–XO system.
Superoxide anion radical is normally initially formed, and its effects can be magnified because it produces other kinds of free radicals and oxidizing agents. The enzymatic superoxide anion radical was generated by the xanthine/xanthine oxidase reaction system. The production of superoxide was estimated by the nitroblue tetrazolium method. […] Differently, in the m-position, methoxy and hydroxyl groups act as an electron-withdrawing properties, ([…]), which are possible for providing a destabilizing effect.

[2] = tested on: Aspergillus flavus (NCIM 524); assay: agar disc diffusion, zone of inhibition; type: cell-based; conditions: Aspergillus flavus, NCIM524; A. flavus; discs 6 mm, test compounds 100 µg/mL in DMSO, standards 10 µg/disc; 28°C 48 h; average of three replicates; read-out: zone of inhibition
Experimental: (§1) The in vitro antimicrobial screening effects of the compounds (3 and 5a–j) were individually tested against a panel of bacteria and fungi including Staphylococcus aureus (NCIM 5021), Bacillus subtilis (NCIM 2999), Pseudomonas aeruginosa (NCIM 5029), Escherichia coli (NCIM 2574), Candida. albicans (NCIM 3471), and Aspergillus flavus (NCIM 524). Microbial strains were cultured overnight at 37°C in nutrient and potato dextrose agar medium. All the pure microbial strains were obtained from National Chemical Laboratory (NCL), Pune, India.
(§2) The antibacterial activity of compounds was determined by agar disc diffusion method. Briefly, a suspension of tested bacterial strains was spread on the nutrient agar medium and potato dextrose agar for fungi. The discs (6 mm in diameter) impregnated with test chemicals each dissolved in concentration (100 μg/mL in DMSO) were placed on the inoculated agar and these plates were kept at 4°C for 2 h. The plate was incubated at 37°C for 24 h in case of bacteria and 48 h at 28°C in case of fungi. streptomycin (10 μg/disc) and fluconazole (10 μg/disc) were used as the standards for antibacterial and antifungal activity, respectively. All the samples were performed in triplicate and the zone of inhibition was measured in millimeters.

[3] = tested on: Bacillus subtilis (NCIM 2999); assay: agar disc diffusion, zone of inhibition; type: cell-based; conditions: Bacillus subtilis, NCIM2999; B. subtilis; discs 6 mm, test compounds 100 µg/mL in DMSO, standards 10 µg/disc; 37°C 24 h; average of three replicates; read-out: zone of inhibition
Experimental: as §1, §2

[4] = tested on: Pseudomonas aeruginosa (NCIM 5029); assay: agar disc diffusion, zone of inhibition; type: cell-based; conditions: Pseudomonas aeruginosa, NCIM5029; P. aeruginosa; discs 6 mm, test compounds 100 µg/mL in DMSO, standards 10 µg/disc; 37°C 24 h; average of three replicates; read-out: zone of inhibition
Experimental: as §1, §2

[5] = tested on: Escherichia coli (NCIM 2574); assay: agar disc diffusion, zone of inhibition; type: cell-based; conditions: Escherichia coli, NCIM2574; E. coli; discs 6 mm, test compounds 100 µg/mL in DMSO, standards 10 µg/disc; 37°C 24 h; average of three replicates; read-out: zone of inhibition
Experimental: as §1, §2

[6] = tested on: Staphylococcus aureus (NCIM 5021); assay: agar disc diffusion, zone of inhibition; type: cell-based; conditions: Staphylococcus aureus, NCIM5021; S. aureus; discs 6 mm, test compounds 100 µg/mL in DMSO, standards 10 µg/disc; 37°C 24 h; average of three replicates; read-out: zone of inhibition
Experimental: as §1, §2

A. niger [7] = assay: agar disc diffusion, zone of inhibition; type: cell-based; conditions: Aspergillus niger; A. niger; discs 6 mm, test compounds 100 µg/mL in DMSO, standards 10 µg/disc; 28°C 48 h; average of three replicates; read-out: zone of inhibition
Experimental: [The procedure below names another organism; the source lists this organism under the same test.] as §1, §2

[8] = tested on: Aspergillus flavus (NCIM 524); assay: minimum inhibitory concentration by dilution method; type: cell-based; conditions: Aspergillus flavus, NCIM524; A. flavus; dilution method; average of three replicates; read-out: MIC
Experimental: as §1
(§3) The minimum inhibitory concentration of the synthesized compounds was determined by dilution method. The compounds were dissolved and then diluted using DMSO; two-fold serial concentrations of the compounds were employed to determine the MIC. In this method, the test concentrations of chemically synthesized compounds were made from 5 to 125 μg/mL.

[9] = tested on: Bacillus subtilis (NCIM 2999); assay: as above; type: cell-based; conditions: Bacillus subtilis, NCIM2999; B. subtilis; dilution method; average of three replicates; read-out: MIC
Experimental: as §1, §3

[10] = tested on: Pseudomonas aeruginosa (NCIM 5029); assay: as above; type: cell-based; conditions: Pseudomonas aeruginosa, NCIM5029; P. aeruginosa; dilution method; average of three replicates; read-out: MIC
Experimental: as §1, §3

[11] = tested on: Escherichia coli (NCIM 2574); assay: as above; type: cell-based; conditions: Escherichia coli, NCIM2574; E. coli; dilution method; average of three replicates; read-out: MIC
Experimental: as §1, §3

[12] = tested on: Staphylococcus aureus (NCIM 5021); assay: as above; type: cell-based; conditions: Staphylococcus aureus, NCIM5021; S. aureus; dilution method; average of three replicates; read-out: MIC
Experimental: as §1, §3

A. niger [13] = assay: as above; type: cell-based; conditions: Aspergillus niger; A. niger; dilution method; average of three replicates; read-out: MIC
Experimental: [The procedure below names another organism; the source lists this organism under the same test.] as §1, §3

[14] = DPPH free radical scavenging activity; conditions: DPPH 0.1 mM, absorbance at 517 nm; triplicate, mean ± SD
Experimental: The capacity to scavenge the stable free radical 2,2-diphenyl-1-picrylhydrazyl (DPPH) was monitored according to the Blois method. The test samples (10–100 μL) were mixed with 1 mL of DPPH (0.1 mM) solution and filled up with methanol to a final volume of 4 mL. Absorbance of the resulting solution was measured at 517 nm in a visible spectrophotometer (Model 166, Systronics, India). The free radical scavenging rate of the reaction solution was calculated as a percentage (%) of DPPH decolouration using the equation (1) I(%)=(Ablank−Asample/Ablank)×100, where A blank is the absorbance of the control reaction mixture excluding the test compounds, and A sample is the absorbance of the test compounds. Radical scavenging potential was expressed as IC50 value, which represents the sample concentration at which 50% of the DPPH radicals were scavenged. Tests were carried out in triplicate and the results were expressed as mean values ± standard deviations.
DPPH radical scavenging activity evaluation is a standard assay in antioxidant activity studies and offers a rapid technique for screening the radical scavenging activity of specific compounds [24]. The free radical scavenging activity of newly synthesized compounds was tested by their ability to bleach the stable radical DPPH. The activity was monitored by following the absorption at 517 nm in a visible spectrophotometer. In the presence of any free radical scavenger, this odd electron pairs up and causes the diminishing of absorption band which is proportional to the number of electrons taken up. The activity was studied at different concentrations for each compound. […] Resulting from a color change from purple to yellow the absorbance decreased when the antioxidant molecule can quench DPPH free radical through donation of hydrogen atom or by electron donating to form a stable DPPH molecule.

For `CC(=O)N(C(=O)c1ccccc1C)c1ccc(N=Cc2cc3ccccc3o2)cc1` [Compound 5f, N-acetyl-N-(4-((benzofuran-2-ylmethylene)amino)phenyl)-2-methylbenzamide], the melting point was 187 °C, the “IC50 Superoxide” value [1] was 49 ± 0.17 µg/mL (≈ 124 µM) and the zone of inhibition at 100 µg/mL [2] was 10.2 mm. The zone of inhibition at 100 µg/mL [3] was 8 mm, the zone of inhibition at 100 µg/mL [4] was 10 mm and the zone of inhibition at 100 µg/mL [5] was 11 mm. It also gave a zone of inhibition at 100 µg/mL [6] of 10 mm, a zone of inhibition at 100 µg/mL (A. niger [7]) of 12 mm and an MIC [8] of 75 µg/mL (≈ 189 µM). The MIC [9] was 50 µg/mL (≈ 126 µM), the MIC [10] was 100 µg/mL (≈ 252 µM) and the MIC [11] was 100 µg/mL (≈ 252 µM). For the same molecule, the MIC [12] was 50 µg/mL (≈ 126 µM), the MIC (A. niger [13]) was 100 µg/mL (≈ 252 µM) and the “IC50 DPPH” value [14] was 53 ± 0.04 µg/mL (≈ 134 µM).
